In doi:10.1101/2025.03.04.641560v1 (biorxiv, 2025):
Read-outs that look alike come from different tables or passages of the source.

Key:
β-galactosidase (LacZ) = β-galactosidase (LacZ) (Escherichia coli, UniProt P00722); assay: fluorescence plate reader, Michaelis-Menten fit; assay type: biochemical; conditions: 10 mM HEPES pH 7.4
Td2F2 [1] = conditions: 10 mM HEPES pH 7.4; Mutant A
Td2F2 [2] = assay: fluorescence plate reader, Michaelis-Menten fit; assay type: biochemical, uncultured bacterium; conditions: 10 mM HEPES pH 7.4

β-galactosidase (LacZ), sequence (P00722 2-1024): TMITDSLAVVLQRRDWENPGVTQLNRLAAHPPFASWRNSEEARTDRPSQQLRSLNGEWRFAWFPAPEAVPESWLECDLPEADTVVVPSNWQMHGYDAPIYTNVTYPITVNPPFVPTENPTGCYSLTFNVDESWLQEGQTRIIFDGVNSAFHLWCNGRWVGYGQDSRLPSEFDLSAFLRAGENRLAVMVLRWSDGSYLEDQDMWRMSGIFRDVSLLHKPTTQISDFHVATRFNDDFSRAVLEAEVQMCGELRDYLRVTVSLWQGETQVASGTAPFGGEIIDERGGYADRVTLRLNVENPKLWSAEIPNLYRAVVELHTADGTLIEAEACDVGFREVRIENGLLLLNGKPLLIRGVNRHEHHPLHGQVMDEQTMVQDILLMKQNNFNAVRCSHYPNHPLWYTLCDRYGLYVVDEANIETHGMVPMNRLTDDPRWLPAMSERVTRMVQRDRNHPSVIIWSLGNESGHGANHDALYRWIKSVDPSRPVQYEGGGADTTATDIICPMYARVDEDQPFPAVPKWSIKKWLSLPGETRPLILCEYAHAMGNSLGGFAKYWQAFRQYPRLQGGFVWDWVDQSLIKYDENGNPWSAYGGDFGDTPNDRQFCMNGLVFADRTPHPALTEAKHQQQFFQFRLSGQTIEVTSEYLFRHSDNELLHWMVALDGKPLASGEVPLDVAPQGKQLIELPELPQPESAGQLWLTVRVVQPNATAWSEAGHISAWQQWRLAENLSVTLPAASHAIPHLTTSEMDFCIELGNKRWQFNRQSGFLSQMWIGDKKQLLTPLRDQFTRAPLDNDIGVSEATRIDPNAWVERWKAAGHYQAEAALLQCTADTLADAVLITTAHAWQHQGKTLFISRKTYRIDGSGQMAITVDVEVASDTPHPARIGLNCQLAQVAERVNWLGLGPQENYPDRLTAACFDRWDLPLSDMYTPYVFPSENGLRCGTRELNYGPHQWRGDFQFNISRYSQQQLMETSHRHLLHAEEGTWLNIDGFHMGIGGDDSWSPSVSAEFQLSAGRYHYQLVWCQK

| Compound | Km (β-galactosidase (LacZ)) [µM] | Km (Td2F2 [1]) [µM] | Km (Td2F2 [2]) [µM] |
| --- | --- | --- | --- |
| OC[C@H]1O[C@@H](Oc2ccc3c(c2)Oc2cc(NCC(F)(F)F)ccc2C32OCc3ccccc32)[C@H](O)[C@@H](O)[C@H]1O (stereo partly drawn) [HMRef-β-D-Gal] | 73 |  |  |
| C[C@H]1O[C@@H](Oc2ccc3c(c2)Oc2cc(NCC(F)(F)F)ccc2C32OCc3ccccc32)[C@H](O)[C@@H](O)[C@H]1O (stereo partly drawn) [HMRef-β-D-Fuc, HMRef-β-D-fucose] |  | 3.7 | 190 |
